ChEMBL document CHEMBL3351363 (J Med Chem, 2014)

How the values were obtained:
[1] = biological target: T1, Muscarinic acetylcholine receptor M1 (Homo sapiens, UniProt P11229); experiment: Displacement of [3H]NMS from human M1 receptor expressed in CHO cells by microplate scintillation counting based radioligand binding assay; format: cell-based
T1 sequence (P11229 whole entry): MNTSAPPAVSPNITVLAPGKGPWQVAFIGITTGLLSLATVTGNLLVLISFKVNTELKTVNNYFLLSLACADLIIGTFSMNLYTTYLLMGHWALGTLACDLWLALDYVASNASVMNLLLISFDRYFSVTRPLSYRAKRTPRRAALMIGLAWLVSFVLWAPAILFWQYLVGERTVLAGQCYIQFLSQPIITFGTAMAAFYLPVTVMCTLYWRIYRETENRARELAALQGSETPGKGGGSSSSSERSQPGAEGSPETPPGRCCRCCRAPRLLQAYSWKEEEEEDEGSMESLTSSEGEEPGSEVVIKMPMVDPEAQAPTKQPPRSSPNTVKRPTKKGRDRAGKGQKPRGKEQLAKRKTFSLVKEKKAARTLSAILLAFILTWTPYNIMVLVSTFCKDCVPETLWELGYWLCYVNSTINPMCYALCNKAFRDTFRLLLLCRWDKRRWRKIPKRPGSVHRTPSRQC

[2] = biological target: T1, Muscarinic acetylcholine receptor M1; experiment: Positive modulatory activity at human M1 receptor expressed in HEK293T cells assessed as effect on carbachol-induced response by BRET based Gq protein activation assay; format: cell-based, HEK-293T
[3] = biological target: T2, Muscarinic acetylcholine receptor M4 (Homo sapiens, UniProt P08173)
T2 sequence (P08173 whole entry): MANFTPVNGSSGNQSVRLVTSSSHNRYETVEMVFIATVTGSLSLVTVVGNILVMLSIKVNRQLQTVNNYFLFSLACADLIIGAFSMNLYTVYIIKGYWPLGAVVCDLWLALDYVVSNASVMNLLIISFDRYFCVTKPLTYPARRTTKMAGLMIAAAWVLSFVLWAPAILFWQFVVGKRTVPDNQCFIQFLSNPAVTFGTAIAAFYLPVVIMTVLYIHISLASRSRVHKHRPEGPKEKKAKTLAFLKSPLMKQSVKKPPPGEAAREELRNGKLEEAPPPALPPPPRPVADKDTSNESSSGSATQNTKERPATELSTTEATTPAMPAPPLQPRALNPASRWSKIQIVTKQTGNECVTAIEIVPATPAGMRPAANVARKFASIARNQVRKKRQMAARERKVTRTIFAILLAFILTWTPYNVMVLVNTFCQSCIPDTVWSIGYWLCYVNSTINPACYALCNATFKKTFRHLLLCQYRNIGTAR

[4] = biological target: T3, Muscarinic acetylcholine receptor M1 (Homo sapiens) (UniProt P11229); experiment: Positive modulatory activity at human M1 receptor expressed in HEK293T cells assessed as effect on carbachol-induced response by BRET based Gq protein activation assay relative to untreated control; format: cell-based; conditions: HEK-293T
T3 sequence (whole entry): T1 sequence (P11229 whole entry)

[5] = biological target: Muscarinic acetylcholine receptor M3 (Homo sapiens, UniProt P20309); experiment: Displacement of [3H]NMS from human M3 receptor expressed in CHO cells by microplate scintillation counting based radioligand binding assay; format: cell-based
Muscarinic acetylcholine receptor M3, sequence (P20309 whole entry): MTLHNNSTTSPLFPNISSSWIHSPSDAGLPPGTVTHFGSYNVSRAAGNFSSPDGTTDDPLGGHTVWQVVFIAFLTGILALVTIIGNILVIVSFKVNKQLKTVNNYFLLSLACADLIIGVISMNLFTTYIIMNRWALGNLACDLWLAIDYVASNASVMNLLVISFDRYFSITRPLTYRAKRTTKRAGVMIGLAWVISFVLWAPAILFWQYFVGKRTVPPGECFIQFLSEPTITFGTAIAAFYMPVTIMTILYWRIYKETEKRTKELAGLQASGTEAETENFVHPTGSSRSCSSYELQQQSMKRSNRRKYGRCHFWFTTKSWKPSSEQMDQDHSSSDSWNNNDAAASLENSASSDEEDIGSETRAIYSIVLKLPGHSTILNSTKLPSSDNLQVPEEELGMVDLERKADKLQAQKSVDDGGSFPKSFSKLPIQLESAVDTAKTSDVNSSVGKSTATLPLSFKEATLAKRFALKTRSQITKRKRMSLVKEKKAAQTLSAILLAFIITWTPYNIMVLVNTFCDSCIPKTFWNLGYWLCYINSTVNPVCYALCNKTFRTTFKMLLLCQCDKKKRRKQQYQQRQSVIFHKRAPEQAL

[6] = biological target: T3, Muscarinic acetylcholine receptor M1 (Homo sapiens); experiment: Agonist activity at human M1 receptor expressed in HEK293T cells by BRET based Gq protein activation assay relative to carbachol; format: cell-based; conditions: HEK-293T
[7] = biological target: T4, Muscarinic acetylcholine receptor M2 (Homo sapiens, UniProt P08172); experiment: Displacement of [3H]NMS from human M2 receptor expressed in CHO cells by microplate scintillation counting based radioligand binding assay; format: cell-based
T4 sequence (P08172 whole entry): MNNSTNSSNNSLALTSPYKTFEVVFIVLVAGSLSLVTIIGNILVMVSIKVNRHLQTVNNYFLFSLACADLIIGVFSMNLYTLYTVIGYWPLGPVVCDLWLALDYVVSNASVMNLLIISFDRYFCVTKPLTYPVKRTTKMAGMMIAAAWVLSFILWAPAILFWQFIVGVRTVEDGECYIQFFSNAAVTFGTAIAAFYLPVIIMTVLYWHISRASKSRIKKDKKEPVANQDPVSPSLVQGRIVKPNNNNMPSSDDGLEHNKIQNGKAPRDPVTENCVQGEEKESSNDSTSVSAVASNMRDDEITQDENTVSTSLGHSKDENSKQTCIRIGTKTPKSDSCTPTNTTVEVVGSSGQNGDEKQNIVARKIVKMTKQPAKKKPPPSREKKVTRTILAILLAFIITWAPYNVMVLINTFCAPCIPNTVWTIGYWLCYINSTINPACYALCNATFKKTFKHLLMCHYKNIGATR

[8] = biological target: T5, Muscarinic acetylcholine receptor M4 (Homo sapiens) (UniProt P08173); experiment: Agonist activity at human M4 receptor expressed in HEK293T cells by BRET based Gi protein activation assay relative to carbachol; conditions: HEK-293T
T5 sequence (whole entry): T2 sequence (P08173 whole entry)

[9] = biological target: T2, Muscarinic acetylcholine receptor M4; experiment: Displacement of [3H]NMS from human M4 receptor expressed in CHO cells by microplate scintillation counting based radioligand binding assay; format: cell-based
[10] = biological target: T5, Muscarinic acetylcholine receptor M4 (Homo sapiens); experiment: Agonist activity at human M4 receptor expressed in HEK293T cells by BRET based Gq protein engagement assay relative to carbachol; format: cell-based; conditions: HEK-293T
[11] = biological target: T2, Muscarinic acetylcholine receptor M4; experiment: Antagonist activity at human M4 receptor expressed in HEK293T cells assessed as inhibition of carbachol-induced response by BRET based Gq protein engagement assay; format: cell-based, HEK-293T
[12] = biological target: T1, Muscarinic acetylcholine receptor M1
[13] = biological target: T2, Muscarinic acetylcholine receptor M4; experiment: Antagonist activity at human M4 receptor expressed in HEK293T cells assessed as inhibition of carbachol-induced response by beta-arrestin engagement assay; format: cell-based, HEK-293T
[14] = biological target: T3, Muscarinic acetylcholine receptor M1 (Homo sapiens); experiment: Positive modulatory activity at human M1 receptor expressed in HEK293T cells assessed as effect on carbachol-induced response by BRET based Gq protein engagement assay relative to untreated control; format: cell-based; conditions: HEK-293T
[15] = biological target: T5, Muscarinic acetylcholine receptor M4 (Homo sapiens); experiment: Antagonist activity at human M4 receptor expressed in HEK293T cells assessed as inhibition of carbachol-induced response by BRET based Gq protein engagement assay relative to untreated control; format: cell-based; conditions: HEK-293T
[16] = biological target: T1, Muscarinic acetylcholine receptor M1; experiment: Agonist activity at human M1 receptor expressed in HEK293T cells by BRET based Gq protein activation assay; format: cell-based, HEK-293T
[17] = biological target: T1, Muscarinic acetylcholine receptor M1; experiment: Positive modulatory activity at human M1 receptor expressed in HEK293T cells assessed as effect on carbachol-induced response by BRET based Gq protein engagement assay; format: cell-based, HEK-293T
[18] = biological target: T5, Muscarinic acetylcholine receptor M4 (Homo sapiens); experiment: Antagonist activity at human M4 receptor expressed in HEK293T cells assessed as inhibition of carbachol-induced response by beta-arrestin engagement assay relative to untreated control; format: cell-based; conditions: HEK-293T
[19] = biological target: T5, Muscarinic acetylcholine receptor M4 (Homo sapiens); experiment: Antagonist activity at human M4 receptor expressed in HEK293T cells assessed as inhibition of carbachol-induced response by BRET based Gi protein activation assay relative to untreated control; conditions: HEK-293T
[20] = biological target: T3, Muscarinic acetylcholine receptor M1 (Homo sapiens); experiment: Agonist activity at human M1 receptor expressed in HEK293T cells by BRET based Gq protein engagement assay relative carbachol; format: cell-based; conditions: HEK-293T
[21] = biological target: T6, Muscarinic acetylcholine receptor M5 (Homo sapiens, UniProt P08912); experiment: Displacement of [3H]NMS from human M5 receptor expressed in CHO cells by microplate scintillation counting based radioligand binding assay; format: cell-based
T6 sequence (P08912 whole entry): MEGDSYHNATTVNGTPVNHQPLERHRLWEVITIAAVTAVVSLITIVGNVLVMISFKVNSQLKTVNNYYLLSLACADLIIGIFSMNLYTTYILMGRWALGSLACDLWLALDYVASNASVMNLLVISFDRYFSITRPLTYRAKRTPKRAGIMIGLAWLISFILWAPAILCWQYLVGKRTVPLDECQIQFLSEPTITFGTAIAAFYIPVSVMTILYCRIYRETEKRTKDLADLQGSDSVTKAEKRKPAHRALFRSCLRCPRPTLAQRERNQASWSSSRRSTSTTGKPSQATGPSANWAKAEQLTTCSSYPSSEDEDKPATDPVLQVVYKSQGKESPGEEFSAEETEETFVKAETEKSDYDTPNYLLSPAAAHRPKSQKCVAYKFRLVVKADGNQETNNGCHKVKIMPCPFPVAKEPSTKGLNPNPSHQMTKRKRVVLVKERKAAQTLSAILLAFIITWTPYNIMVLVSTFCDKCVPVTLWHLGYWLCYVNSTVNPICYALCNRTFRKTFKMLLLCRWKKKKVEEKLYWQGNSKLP

[22] = biological target: T1, Muscarinic acetylcholine receptor M1; experiment: Agonist activity at human M1 receptor expressed in HEK293T cells by BRET based Gq protein engagement assay
[23] = biological target: T2, Muscarinic acetylcholine receptor M4; experiment: Agonist activity at human M4 receptor expressed in HEK293T cells by BRET based Gq protein activation assay
[24] = biological target: T2, Muscarinic acetylcholine receptor M4; experiment: Agonist activity at human M4 receptor expressed in HEK293T cells by BRET based Gq protein engagement assay
[25] = biological target: T1, Muscarinic acetylcholine receptor M1; format: cell-based, HEK-293T
[26] = biological target: T1, Muscarinic acetylcholine receptor M1; format: cell-based, HEK-293T; remark: listed apart in the source
[27] = biological target: T3, Muscarinic acetylcholine receptor M1 (Homo sapiens); experiment: Agonist activity at human M1 receptor expressed in HEK293T cells by BRET based beta-arrestin engagement assay relative to carbachol; format: cell-based; conditions: HEK-293T
[28] = biological target: T5, Muscarinic acetylcholine receptor M4 (Homo sapiens); experiment: Agonist activity at human M4 receptor expressed in HEK293T cells by BRET based beta-arrestin engagement assay relative to carbachol; format: cell-based; conditions: HEK-293T
[29] = biological target: T1, Muscarinic acetylcholine receptor M1; experiment: Agonist activity at human M1 receptor expressed in HEK293T cells by BRET based beta-arrestin engagement assay

SMILES	Ki [1] [nM]	IC50 [3] [nM]	Ki [5] [nM]	Emax [6] [%]	Ki [7] [nM]	Emax [8] [%]	Ki [9] [nM]	Emax [10] [%]	IC50 [11] [nM]	IC50 [12] [nM]	IC50 [13] [nM]	Imax [15] [%]	EC50 [16] [nM]	Imax [18] [%]	Imax [19] [%]	Emax [20] [%]	Ki [21] [nM]	EC50 [22] [nM]	EC50 [23] [nM]	EC50 [24] [nM]	also measured
O=C1CCc2ccccc2N1CCCN1CCC(CCCCCCCO)CC1	355	589	631	73	209	< 0	389	< 0	1480	1150	794	< 100	100	93	54	76	3090	229	–	–	EC50 [2]: 85.1 nM; Emax [4]: 44%; Emax [14]: 21%; EC50 [17]: 69.2 nM
CN1CCC=C(c2nsnc2OCCCCCC2CCN(CCCN3C(=O)CCc4ccccc43)CC2)C1	6.76	631	4.68	13	11	27	7.94	< 0	447	4270	355	< 100	20.4	< 100	< 100	< 0	5.62	–	30.9	7080	IC50 [25]: 5370 nM; IC50 [26]: 646 nM
CCCCCCOc1nsnc1C1=CCCN(C)C1 [XANOMELINE]	–	–	7.76	77	–	94	–	–	–	–	–	–	–	–	–	54	–	–	–	–	Emax [27]: 95%; Emax [28]: 42%
CN1CCC=C(c2nsnc2OCCCCCCCC2CCN(CCCN3C(=O)CCc4ccccc43)CC2)C1	0.912	1860	0.794	25	1.38	40	0.891	18	407	21.9	145	92	41.7	14	60	42	2.29	166	35.5	18.6	Emax [27]: 42%; EC50 [29]: 174 nM; IC50 [25]: 380 nM; IC50 [26]: 741 nM
